# Experimental data: patent publication US9192667B2, “Method of treating cancer by administering CSF-1R antibodies and a TLR9 agonist” (Hoffmann-La Roche Inc., priority 2013, dated 2015)
# Columns and labels:
# [1] = tested on: MC38 mouse CRC in vivo model; assay: Tumor growth inhibition in subcutaneous syngeneic MC38 colon carcinoma model; settings: antibody 30 mg/kg i.p. weekly, CpG ODN 1826 100 μg peritumoral 1×; for TGI (day 24): versus control antibody
# From the text: Additionally to the assessment of median tumor volume after 2 weeks of treatment the progression of individual tumors in the study was followed until progression ≧700 mm3 (FIG. 1 (CpG is TLR9 agonist CpG ODN 1826) and Table 11)
# [2] = SCID mouse; cited from earlier work
# lymphoma = settings: phase 1/1 I clinical study; cited from earlier work
# [3] = phase 1/1 I clinical study; cited from earlier work
substance,measurement,setting,value
CpG ODN 1826,Median time to progression TV > 700 mm3,[1],24 days
same,TCR (day 24),[1],0.28
same,TGI (day 24),[1],74%
same,TGI (day 24),[1]; listed as TLR9 agonist (CpG),73%
"CpG-685: synthetic, 21-mer fully phosphorothioated CpG ODN 5′-tcgtcgacgtcgttcgttctc-3′ (SEQ ID NO: 93), SBI Biotech (DNA TCGTCGACGTCGTTCGTTCTC; DNA, all phosphorothioate, methylation of C not given here)",antitumor effects,[2],showed antitumor effects
d(P-Thio)(TCGTCGTTTTGTCGTTTTGTCGTT)DNA [CpG-7909],antilymphoma activity,lymphoma,antilymphoma activity
same,tolerability,[3],well tolerated
